Tested on: Rattus norvegicus
Test: Compound was tested in ratsdeficient in vitamin D at a dose of 125 ug/kg i.v.; NE denotes no effect was observed on bone calcium mobilization (BCM) and intestinal calcium absorption (ICA)
Format: functional, organism-based

## C=C1/C(=C\C=C2/CCC[C@@]3(C)C2CC[C@@H]3C(C)=O)CC(O)C[C@@H]1O (stereo partly specified)
  Activity: No effect

— ChEMBL document CHEMBL1150472, “Synthesis and immunoregulating activity of vitamin D analogues bearing pregnane side chains” (Bioorg Med Chem Lett, 1992)
